Non-standard residues stand in square brackets, D forms with d. Residues, ends and D or L forms follow the SMILES beside them. *: point of attachment. Nle = CCCC[C@H](N)C(=O)O; Cbz = O=C(OCc1ccccc1)*
How the values were obtained:
[1] = test system: detached retina; assay: Experimental retinal detachment, western blot of autophagy markers (Atg5, Atg5-12, LC3-II) in retina; type: in vivo; conditions: rat, 50 μg subretinal at time of detachment, 7 days, vs detachments alone
Protocol: All experiments were performed in accordance with the ARVO Statement for the Use of Animals in Ophthalmic and Vision Research and the guidelines established by the University Committee on Use and Care of Animals of the University of Michigan. Detachments were created in adult male Brown-Norway rats (300-400 g; Charles River Laboratories, Wilmington, Mass.) as described previously. Briefly, rodents were anesthetized with a 50:50 mix of ketamine/xylazine, and pupils were dilated with topical phenylephrine (2.5%) and tropicamide (1%). A 20-gauge microvitreoretinal blade was used to create a sclerotomy 2 mm posterior to the limbus, carefully avoiding lens damage. A subretinal injector (Glaser, 32-gauge tip; BD Ophthalmic Systems, Franklin Lakes, N.J.) was introduced through the sclerotomy into the vitreous cavity and then through a peripheral retinotomy into the subretinal space. Sodium hyaluronate (10 mg/mL, Healon OVD; Abbott Medical Optics, Uppsala, Sweden) was slowly injected to detach the neurosensory retina from the underlying RPE. In all experiments, approximately one third to one half of the neurosensory retina was detached. Detachments were created in the left eye. The right eye served as the control, with all the steps of the procedure performed except for introduction of the subretinal injector and injection of the sodium hyaluronate. […]
Retinas from experimental eyes with detachment (detached portion of retina only) and control eyes without detachment were dissected from the RPE-choroid, homogenized, and lysed in buffer containing 10 mM HEPES (pH 7.6), 0.5% IgEPal, 42 mM KCl, 1 mM phenylmethylsulfonyl fluoride, 1 mM EDTA, 1 mM EGTA, 1 mM dithiothreitol, 5 mM MgCl2, and one tablet of protease inhibitors per 10 mL buffer (Complete Mini; Roche Diagnostics GmbH, Madison, Wis.). […] The protein concentration of the supernatant was then determined (DC Protein Assay kit; Bio-Rad Laboratories, Hercules, Calif.). The protein samples were separated on SDS-polyacrylamide gels (Tris-HCl Ready Gels; Bio-Rad Laboratories). […]

[2] = test system: detached retina; conditions: 7 days, compared to untreated detached retinas, prior work (ref 12); cited from earlier work
[3] = biological target: T1, calpain 1 (Mus musculus, UniProt O35350); assay: Western blot of calpain 1 specific cleaved alpha-spectrin in 661W cells treated with Fas activating antibody; type: cell-based; conditions: 24 hours, inhibitor added 1 hour before Fas activating antibody, compared to Fas activation alone
T1 construct: endogenous in cells; host or cells: 661W mouse photoreceptor cell line
T1 sequence (O35350 1-713): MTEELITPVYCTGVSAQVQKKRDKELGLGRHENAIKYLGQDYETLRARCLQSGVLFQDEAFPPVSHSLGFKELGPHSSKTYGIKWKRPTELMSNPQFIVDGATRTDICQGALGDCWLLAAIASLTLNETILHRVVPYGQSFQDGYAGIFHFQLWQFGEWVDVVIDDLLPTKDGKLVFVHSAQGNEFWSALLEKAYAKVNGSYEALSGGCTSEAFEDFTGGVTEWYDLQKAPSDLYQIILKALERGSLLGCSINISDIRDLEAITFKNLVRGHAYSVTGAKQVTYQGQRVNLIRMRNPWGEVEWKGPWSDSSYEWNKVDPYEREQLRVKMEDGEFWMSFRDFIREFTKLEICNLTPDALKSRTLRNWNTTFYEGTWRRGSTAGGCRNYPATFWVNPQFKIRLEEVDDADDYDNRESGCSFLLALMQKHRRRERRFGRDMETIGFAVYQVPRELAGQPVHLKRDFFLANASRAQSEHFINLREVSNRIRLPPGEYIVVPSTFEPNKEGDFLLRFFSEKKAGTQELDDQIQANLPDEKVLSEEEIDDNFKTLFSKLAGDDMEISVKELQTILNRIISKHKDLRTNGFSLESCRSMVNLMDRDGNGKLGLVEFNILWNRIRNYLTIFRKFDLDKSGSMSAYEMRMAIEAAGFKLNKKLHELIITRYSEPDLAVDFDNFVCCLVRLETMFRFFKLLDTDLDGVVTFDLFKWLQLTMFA
T1 sequence (O88456 1-268 partner): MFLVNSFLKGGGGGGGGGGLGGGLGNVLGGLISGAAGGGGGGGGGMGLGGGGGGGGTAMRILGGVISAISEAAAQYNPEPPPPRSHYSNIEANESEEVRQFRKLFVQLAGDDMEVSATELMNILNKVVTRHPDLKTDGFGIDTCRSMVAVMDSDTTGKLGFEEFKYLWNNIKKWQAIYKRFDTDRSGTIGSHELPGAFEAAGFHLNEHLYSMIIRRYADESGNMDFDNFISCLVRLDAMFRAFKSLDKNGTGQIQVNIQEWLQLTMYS
Protocol: The 661W photoreceptor cell line was generously provided by Dr. Muayyad Al-Ubaidi (Department of Cell Biology, University of Oklahoma Health Sciences Center, Oklahoma City, Okla.). The 661W cell line was maintained in Dulbecco's modified Eagle's medium containing 10% fetal bovine serum, 300 mg/L glutamine, 32 mg/L putrescine, 40 μL/L β-mercaptoethanol, and 40 μg/L of both hydrocortisone 21-hemisuccinate and progesterone. The media also contained penicillin (90 units/mL) and streptomycin (0.09 mg/mL). Cells were grown at 37° C. in a humidified atmosphere of 5% CO2 and 95% air.
Retinas from experimental eyes with detachment (detached portion of retina only) and control eyes without detachment were dissected from the RPE-choroid, homogenized, and lysed in buffer containing 10 mM HEPES (pH 7.6), 0.5% IgEPal, 42 mM KCl, 1 mM phenylmethylsulfonyl fluoride, 1 mM EDTA, 1 mM EGTA, 1 mM dithiothreitol, 5 mM MgCl2, and one tablet of protease inhibitors per 10 mL buffer (Complete Mini; Roche Diagnostics GmbH, Madison, Wis.). 661W cells were plated at 150,000 cells per well in six-well culture dishes in growth media. After 24 hours, the cells were washed one time with warmed PBS solution and then placed in growth media without fetal bovine serum. Depending on experimental conditions, 500 ng/mL Fas activating antibody (BD Biosciences, San Jose, Calif.) and various calpain inhibitors including MDG-28170 (Sigma, St. Louis, Mo.), MG-101 (Sigma, St. Louis, Mo.), calpeptin (Santa Cruz Biotechnology, Santa Cruz, Calif.) or equal volume of DMSO was added. Calpain inhibitors were added 1 hour prior to the addition of Fas activating antibody. The cells were incubated for various lengths of time and then lysed and homogenized in lysis buffer. The homogenates were incubated on ice and centrifuged at 22,000 g at 4° C. for 60 minutes. The protein concentration of the supernatant was then determined (DC Protein Assay kit; Bio-Rad Laboratories, Hercules, Calif.). The protein samples were separated on SDS-polyacrylamide gels (Tris-HCl Ready Gels; Bio-Rad Laboratories). After electrophoretic separation, the proteins were transferred onto polyvinylidene fluoride membranes (Immobilon-P; Millipore, Billerica, Mass.). Membranes were then immunoblotted with antibodies according to the manufacturer's instructions. The following antibodies were used: LC3b (Cell Signaling, Beverly, Mass.), Atg5 (Abgent, San Diego, Calif.), Atg12 (Cell Signaling, Beverly, Mass.), calpain 1 (Cell Signaling, Beverly, Mass.), alpha-spectrin (Santa Cruz Biotechnology, Santa Cruz, Calif.), actin (Sigma, St. Louis, Mo.), and GAPDH (Abcam, Cambridge, Mass.).
After determining calpain 1 levels, it was looked to correlate this with calpain activity. […]

SMILES	Atg5-12 levels in retina [1]	Atg5-12 levels in retina ([1]; listed as Baf-a)	LC3-II level in retina [2]	cleaved alpha-spectrin levels [3]
CO/C1=C\C(C)=C\[C@@H](C)[C@@H](O)[C@@H](C)C/C(C)=C/C=C/[C@H](OC)[C@@H]([C@@H](C)[C@@H](O)[C@H](C)[C@@]2(O)C[C@@H](O)[C@H](C)[C@@H](C(C)C)O2)OC1=O [Bafilomycin-a]	did not appear to be any increase	no significant difference	remain elevated	–
CC(C)[C@H](NC(=O)OCc1ccccc1)C(=O)N[C@H](C=O)Cc1ccccc1 [MDG-28170] (Cbz-Val-Phe-aldehyde)	–	–	–	decreased
CCCC[C@@H](C=O)NC(=O)[C@H](CC(C)C)NC(=O)[C@H](CC(C)C)NC(C)=O [MG-101] (Ac-Leu-Leu-[Nle]-aldehyde)	–	–	–	decreased

— patent US20160015770A1, “COMPOSITIONS FOR TREATMENT OF RETINAL DETACHMENT” (THE REGENTS OF THE UNIVERSITY OF MICHIGAN, priority 2013, published 2016)
